In patent publication EP1228058B1, “BENZOPYRANYL GUANIDINE DERIVATIVES, PROCESS FOR PREPARATION THEREOF, AND PHARMACEUTICAL COMPOSITIONS CONTAINING THEM” (Dongbu Hannong Chemical Co., Ltd., priority 1999, dated 2001):

Legend:
[1] = system: rat aorta; assay: Vasodilation effects on isolated blood vessels of rats (methoxamine-constricted aortic rings); type: cell-based; conditions: isolated rat aorta constricted with methoxamine (3 uM); read-out: Vasodilation Activity (in Vitro, rat aorta) (IC50)
Excerpt: Male Sprague-Dawly rats (350-450 g, obtained from the Experimental Animal Team of the Korea Research Institute of Chemical Technology) were knocked unconscious by hitting the occipital region, sacrificed by cervical dislocation, and underwent thoracotomy. After being quickly removed, the thoracic aorta was deprived of the adipose tissue and cut into aortic rings of 3 mm width. The aorta was lightly rubbed with a modified Krebs Henseleit buffer (Physiological Salt Solution, PSS) soaked cotton club to remove the inner epithelial layer therefrom. While being suspended in an organ bath containing a physiological buffer, the vascular tissue was allowed to equilibrate under a resting tension of 2 g and then, stand for 1 hour at 37 °C for stabilization with a supply of a carbogen consisting of 95% O2-5% CO2.
Thereafter, the vascular tissue was constricted with 10^-5 M phenylephrine and washed several times with PSS and this procedure was repeated again to ensure the stable reacivity of vascular smooth muscle to repetitive constriction/dilatation.
In addition, 3x10^-6 M methoxamine was used to induce an intensive constriction in the vascular smooth muscle. When the vasoconstriction induced by the methoxamine reached and maintained a maximum, test compounds and controls were cumulatively added to the organ baths in concentrations of 1, 3, 10 and 30 uM so as to induce vasodilatation. As for the controls, they were Cromakalim and BMS-180448 (the compounds of the chemical formula 2), both known to be the first generation KATP activator with potent vasodilatation and cardioprotection effects.
Following the addition of the drugs, the change in the maximal constriction induced by methoxamine was calculated to plot a concentration-dilation response curve. Through a linear regression analysis, IC50, the drug concentration at which the vascular tissue is 50% dilated, was obtained for each drug.

[2] = system: rat brain homogenate; assay: Inhibition of iron-induced lipid peroxidation (MDA quantification); type: biochemical; conditions: 100 uM; FeCl2 400 uM, 37 °C, 30 min
Protocol: The rat brain was homogenized in a Krebs buffer (15 mM HEPES, 10 mM glucose, 140 mM NaCl, 3.6 mM KCl, 1.5 mM CaCl2, 1.4 mM KH2PO4, 0.7 mM MgCl2, pH 7.4) and the supernatant separated by centrifugation at 12,000 rpm for 10 min. was used for further experiments. FeCl2 was added to a final concentration of 400 uM in the brain homogenate which was then allowed to stand at 37 °C for 30 min. for the facilitation of oxidation. Each of the test compounds was added at a concentration of 100 uM and vehicle was used as a control.
Iron facilitates the oxidation of the brain homogenate to produce malondialdehyde (MDA), a lipid peroxidation product. Thus, the lipid peroxidation was determined by MDA quantification. The inhibitory effect of the test compounds against the lipid peroxidation was evaluated by calculating MDA reduction rate of the test compounds compared with that of the control group.
Typically, the MDA quantification is achieved by reacting samples with 2-thiobarbituric acid (TBA) and measuring the absorbance at 530 nm. However, this method is unsuitable to treat samples on a large scale because of a boiling step. Thus, in this experiment, N-methyl-2-phenylindole was used instead of TBA. […] Bioxytech^R LPO-586 Kit was used for MDA quantification.

[3] = system: RAW 264.7 cells; assay: Inhibition of LPS-induced NO production (Griess reagent); type: cell-based, murine; conditions: Mus musculus, 24 hours; for inhibition at 33 µM: RAW264.7, 33 uM; for inhibition at 100 µM: RAW264.7, 100 uM
Protocol: Using RPMI1640 media supplemented with 10% fetal bovine serum (FBS), RAW 264.7 cells (obtained from American Type Culture Collection), a murine macrophage cell line, were cultured at 37 °C in a 5% CO2 incubator. The RAW264.7 cells were harvested and cell density was adjusted to 5x10^5/ml with a RPMI medium supplemented with 0.5% FBS and plated at 5x10^4 cells/well to 96-well plates, which were then cultured for 20 hr in a CO2 incubator. After removal of the media, the cells were pre-treated for 1 hour with fresh media containing 33 uM and 100 uM of test compounds. The test compounds were dissolved in DMSO and diluted to respective concentration in the media. In order to minimize DMSO effect on the nitric oxide formation by the RAW264.7 cells in the wells, the media were allowed to contain DMSO at a concentration of 0.1 % or less.
After completion of one hour pre-treatment, lipopolysaccharide (LPS, E. coli serotype 055:B5) was added to activate the cells, which were, then, maintained for 24 hours in a CO2 incubator. As a result of the activation of RAW264.7 cells with LPS, NO was formed. The NO released into the media was in a form of nitrite NO2^- and quantitatively measured using the Griess reagent. A control was treated only with vehicle instead of test compounds.
The inhibitory effects of the test compounds against NO production were determined as the reduction of NO quantity compared with that of the control group.

[4] = system: HUVEC; assay: Inhibition of HUVEC tube formation on Matrigel; type: cell-based, Human; parameters: key: -: no effect; +/-: week effect; +: moderate effect; ++: strong effect
Protocol: HUVEC (Human umbilical vein endothelial cells, ATCC CRL-1730) were cultured, and tubulogenesis was induced in vascular endothelial cells by plating them onto the surface of Matrigel for several hours. The effects on tube formation of the test compounds were compared with the vehicle treated controls, then confirmed their in vitro anti-angiogenic effect indirectly.

| Structure (SMILES) | IC50 [1] [µM] | % Inhibition [2] [%] | inhibition at 33 µM [3] [%] | inhibition at 100 µM [3] [%] | Inhibitory Effects on Tube Formation ([4]; 100 uM) | Inhibitory Effects on Tube Formation ([4]; 10 uM) |
| --- | --- | --- | --- | --- | --- | --- |
| COC(OC)[C@@]1(C)Oc2ccc([N+](=O)[O-])cc2[C@H](NC(=NC#N)NCc2ccccc2)[C@H]1O [Example 24, (2S, 3R, 4S)-N''-cyano-N-(6-nitro-3,4-dihydro-3-hydroxy-2-methyl-2-dimethoxymethyl-2H-benzopyran-4-yl)-N'-benzylguanidine] | 9.78 | 12 | 16 | 48 | + |  |
| COC(OC)[C@@]1(C)Oc2ccc([N+](=O)[O-])cc2[C@@H](NC(=NC#N)NCc2ccccc2)[C@@H]1O [Example 25, (2S, 3S, 4R)-N''-cyano-N-(6-nitro-3,4-dihydro-3-hydroxy-2-methyl-2-dimethoxymethyl-2H-benzopyran-4-yl)-N'-benzylguanidine] | > 30 | 2 | 39 | 54 |  |  |
| COC(OC)[C@@]1(C)Oc2ccc([N+](=O)[O-])cc2[C@H](NC(=NC#N)Nc2ccccc2Cl)[C@H]1O [Example 32, (2S, 3R, 4S)-N''-cyano-N-(6-nitro-3,4-dihydro-3-hydroxy-2-methyl-2-dimethoxymethyl-2H-benzopyran-4-yl)-N'-(2-chlorophenyl)guanidine] | 3.57 | 86 |  | 83 |  |  |
| COC(OC)[C@@]1(C)Oc2ccc([N+](=O)[O-])cc2[C@@H](NC(=NC#N)NCc2ccccc2)[C@@H]1OC(C)=O [Example 38, (2S, 3S, 4R)-N''-cyano-N-(6-nitro-3,4-dihydro-3-acetoxy-2-methyl-2-dimethoxymethyl-2H-benzopyran-4-yl)-N'-benzylguanidine] | 24.5 | 4 | 56 | 85 |  |  |
| COC(OC)[C@@]1(C)Oc2ccc(N)cc2[C@@H](NC(=NC#N)NCc2ccccc2)[C@@H]1O [Example 40, (2S, 3S, 4R)-N''-cyano-N-(6 - amino-3,4-dihydro-3-hydroxy-2-methyl-2-dimethoxymethyl-2H-benzopyran-4-yl)-N'-benzylguanidine] | > 30 | 79 |  | 26 | ++ | + |
